# Experimental data published in ChEMBL document CHEMBL6127035, “Novel pyridazinone derivatives bind to KSRP: Synthesis, anti-tumor biological evaluations and modelling insights” (Eur J Med Chem, 2024).
# Legend:
# 4T1 = assay: Antiproliferative activity against mouse 4T1 cells assessed as reduction in cell viability incubated for 2 days by MTT assay; type: functional, cell-based; settings: 4T1, 48 h
# MCF7 = assay: Antiproliferative activity against human MCF7 cells assessed as reduction in cell viability incubated for 2 days by MTT assay; type: functional, cell-based; settings: MCF7, 48 h
# MDA-MB-231 = assay: Antiproliferative activity against human MDA-MB-231 cells assessed as reduction in cell viability incubated for 2 days by MTT assay; type: functional, cell-based; settings: MDA-MB-231, 48 h
# NCI-H460 = assay: Antiproliferative activity against human NCI-H460 cells assessed as reduction in cell viability incubated for 2 days by MTT assay; type: functional, cell-based; settings: NCI-H460, 48 h
# KB = assay: Antiproliferative activity against human KB cells assessed as reduction in cell viability incubated for 2 days by MTT assay; type: functional, cell-based; settings: 48 h
# A549 = assay: Antiproliferative activity against human A549 cells assessed as reduction in cell viability incubated for 2 days by MTT assay; type: functional, cell-based; settings: A549, 48 h
# HCT-116 = assay: Antiproliferative activity against human HCT-116 cells assessed as reduction in cell viability incubated for 2 days by MTT assay; type: functional, cell-based; settings: HCT-116, 48 h
# U-87 MG = assay: Antiproliferative activity against human U-87 MG cells assessed as reduction in cell viability incubated for 2 days by MTT assay; type: functional, cell-based, U-87MG ATCC; settings: 48 h
# MIA PaCa-2 = assay: Antiproliferative activity against human MIA PaCa-2 cells assessed as reduction in cell viability incubated for 2 days by MTT assay; type: functional, cell-based; settings: MIA PaCa-2, 48 h
# [1] = Cytotoxicity against human L02 cells assessed as reduction in cell viability incubated for 2 days by MTT assay; type: toxicity, cell-based
# [2] = target: T1, Far upstream element-binding protein 2 (Homo sapiens) (UniProt Q92945); assay: Binding affinity to recombinant full-length KSRP (unknown origin) by SPR analysis
# T1 sequence (whole entry): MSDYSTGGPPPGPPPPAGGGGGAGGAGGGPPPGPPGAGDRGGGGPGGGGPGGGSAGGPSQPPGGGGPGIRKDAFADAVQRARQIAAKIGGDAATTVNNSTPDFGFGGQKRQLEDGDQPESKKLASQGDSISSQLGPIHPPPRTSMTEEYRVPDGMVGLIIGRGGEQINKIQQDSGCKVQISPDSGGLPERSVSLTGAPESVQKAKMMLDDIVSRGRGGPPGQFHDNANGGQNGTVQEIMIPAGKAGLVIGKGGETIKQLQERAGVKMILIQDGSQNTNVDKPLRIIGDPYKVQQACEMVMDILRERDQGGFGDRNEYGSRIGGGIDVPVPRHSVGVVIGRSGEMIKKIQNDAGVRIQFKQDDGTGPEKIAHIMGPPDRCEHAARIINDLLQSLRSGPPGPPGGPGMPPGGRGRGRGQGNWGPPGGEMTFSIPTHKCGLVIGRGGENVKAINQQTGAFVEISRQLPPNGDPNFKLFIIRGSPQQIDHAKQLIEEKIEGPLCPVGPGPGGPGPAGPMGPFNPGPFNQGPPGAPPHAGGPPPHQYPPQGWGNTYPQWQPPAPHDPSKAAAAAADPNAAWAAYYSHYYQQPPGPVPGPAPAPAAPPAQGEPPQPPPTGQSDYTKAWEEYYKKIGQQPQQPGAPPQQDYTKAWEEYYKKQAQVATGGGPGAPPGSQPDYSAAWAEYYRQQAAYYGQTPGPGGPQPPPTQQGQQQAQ
# [3] = target: T2, Far upstream element-binding protein 2 (Homo sapiens, UniProt Q92945); assay: Binding affinity to recombinant full-length KSRP (unknown origin) assessed as dissociation constant by SPR analysis
# T2 sequence (Q92945 whole entry): T1 sequence (whole entry)
SMILES,IC50 (4T1) [nM],IC50 (MCF7) [nM],IC50 (MDA-MB-231) [nM],IC50 (NCI-H460) [nM],IC50 (KB) [nM],IC50 (A549) [nM],IC50 (HCT-116) [nM],IC50 (U-87 MG) [nM],IC50 (MIA PaCa-2) [nM],IC50 at 2 days [1] [nM],Activity [2],Kd [3] [nM]
CCN(CCCN1CCCC1)S(=O)(=O)c1ccc(-n2ncc(OC)c(Cl)c2=O)cc1,> 20000,> 20000,> 20000,,,,,,,,,
CN(CCN(C)S(=O)(=O)c1ccc(-n2ncc(Cl)c(Cl)c2=O)cc1)S(=O)(=O)c1ccc(-n2ncc(Cl)c(Cl)c2=O)cc1,> 10000,> 20000,> 50000,,,,,,,,,
CN(CCOS(C)(=O)=O)S(=O)(=O)c1ccc(-n2ncc(Cl)c(Cl)c2=O)cc1,2100,5180,16000,660,380,1960,730,320,390,4240,,
COCCNS(=O)(=O)c1ccc(-n2ncc(Cl)c(Cl)c2=O)cc1,1720,4960,6080,1040,470,1260,470,580,390,4070,,
O=c1c(Cl)c(Cl)cnn1-c1ccc(S(=O)(=O)NCCCN2CCCC2)cc1,1450,4430,9110,1940,580,1800,990,700,870,8150,,
CCN(CCOC)S(=O)(=O)c1ccc(-n2ncc(Cl)c(Cl)c2=O)cc1,1800,> 10000,> 10000,,,,,,,,,
CC(CO)NS(=O)(=O)c1ccc(-n2ncc(Cl)c(Cl)c2=O)cc1 (centres undefined),1820,4450,7570,1020,500,2070,870,580,440,4660,,
COCC(C)NS(=O)(=O)c1ccc(-n2ncc(Cl)c(Cl)c2=O)cc1 (centres undefined),4040,8170,16100,,,,,,,,Dose-Dependent Effect,38300
